According to patent publication US6797819B1, “Alkaloids” (President and Fellows of Harvard College, priority 1998, dated 2004):
Entries after “also recorded” stand apart in the source; their conditions may differ.

System: VSVG-GFP trafficking in BSC1 cells
Assay type: cell-based, monkey

SMILES	effect on the secretory pathway	ability to block protein trafficking from the golgi apparatus to the plasma membrane	inhibition of VSVG-GFP movement from the golgi apparatus to the plasma membrane	inhibition of the movement of a specific cellular protein from the golgi apparatus to the plasma membrane
COc1ccc2c3c1O[C@H]1C[C@@H](O)C=C[C@@]31CCN(C)C2 [galanthamine, reference compound]	no observable effect on the secretory pathway			
COc1ccc(CS[C@@H]2CC(=NOCc3ccccc3)C[C@H]3Oc4c(Br)c(OCC5CC5)cc5c4[C@]32C[C@@H](CO)NC5)cc1 [secramine]		block protein trafficking from the golgi apparatus to the plasma membrane	potent inhibitor of VSVG-GFP movement from the golgi apparatus to the plasma membrane; also recorded: Golgi to PM Blocker	potent inhibitor of the movement of a specific cellular protein from the golgi apparatus to the plasma membrane
